# Data as given in patent publication EP0542497A1, “Heterocyclic compounds” (THE WELLCOME FOUNDATION LIMITED, priority 1991, dated 1993).
# Counter-ions that a name gives are not always drawn.
# Tests used:
# DHFR = biological target: T1, DHFR (Candida albicans, UniProt P22906); experiment: biochemical; settings: C.albicans enzyme; read-out: DHFR I50 C.albicans
# T1 sequence (P22906 1-192): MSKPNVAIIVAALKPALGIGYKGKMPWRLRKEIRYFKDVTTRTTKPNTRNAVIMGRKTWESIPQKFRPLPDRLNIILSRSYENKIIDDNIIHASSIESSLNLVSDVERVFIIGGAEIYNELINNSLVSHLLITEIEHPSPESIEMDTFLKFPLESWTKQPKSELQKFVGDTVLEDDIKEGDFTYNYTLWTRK
# [1] = biological target: T2, human dihydrofolate reductase (Homo sapiens, UniProt P00374); experiment: DHFR I50, human enzyme; assay type: biochemical
# T2 sequence (P00374 1-187): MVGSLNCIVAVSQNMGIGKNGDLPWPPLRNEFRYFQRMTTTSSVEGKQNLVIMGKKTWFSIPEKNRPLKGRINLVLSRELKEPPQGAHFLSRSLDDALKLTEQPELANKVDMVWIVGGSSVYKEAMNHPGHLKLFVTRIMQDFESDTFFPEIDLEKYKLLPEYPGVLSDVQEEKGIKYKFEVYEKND
# GC3C1 colon carcinoma = experiment: Cytotoxicity in cell culture (inhibition of cell growth); assay type: cell-based; settings: GC3/C1, human line, continuous exposure 72 hours
# Procedure: (§1) The cytotoxic effects of various compounds were measured by the inhibition of mammalian cell growth in culture. Cell lines were grown in RPMI-1640 media prepared without folic acid but supplemented with 10nM calcium leucovorin, 25mM HEPES and 10% dialysed fetal bovine serum. In the case of human medulloblastoma cells (Daoy), the media (containing undialysed 10% fetal bovine serum) was pretreated with the enzyme thymidine phosphorylase (20 units/ml for 30 mins. at 37°C) to remove endogenous thymidine. Cells were seeded into 96 well microtiter plates (at densities determined to give log phase growth of control cells at the end of the assay) in 150µl of medium and grown at 37°C in a humidified incubator at 6% CO₂ for 24 hours. Compounds were prepared in media at four times the highest concentration to be tested; two-fold serial dilutions were made, and compounds were added to cells. […] The EC₅₀, defined as the concentration of compound required to reduce growth to 50% of the control, was determined from a plot of per cent inhibition versus log concentration. Cells were continuously exposed to inhibitor for 72 hours.
# [2] = system: HCT8 colon adenocarcinoma; experiment: as above; assay type: cell-based; settings: HCT-8, human line, continuous exposure 72 hours
# Procedure: as §1
# [3] = system: KB3-1 epidermoid carcinoma; experiment: as above; assay type: cell-based; settings: KB 3-1, human line, continuous exposure 72 hours
# Procedure: as §1
# [4] = system: Ehrlich ascites carcinoma; experiment: as above; assay type: cell-based; settings: mouse line, continuous exposure 72 hours
# Procedure: as §1
# [5] = system: L cells (derived from connective tissue); experiment: as above; assay type: cell-based; settings: mouse line, continuous exposure 72 hours
# Procedure: as §1
# S180 sarcoma = experiment: as above; assay type: cell-based; settings: S-180, mouse line, continuous exposure 72 hours
# Procedure: as §1
# [6] = system: MCF7 breast adenocarcinoma; experiment: as above; assay type: cell-based; settings: human line, continuous exposure 72 hours
# Procedure: as §1
# D98 bone marrow cells = experiment: as above; assay type: cell-based; settings: human line, continuous exposure 72 hours
# Procedure: as §1
# CCRF-CEM T cells = experiment: as above; assay type: cell-based; settings: human line, continuous exposure 72 hours
# Procedure: as §1
# Daoy medulloblastoma = experiment: as above; assay type: cell-based; settings: human line, continuous exposure 72 hours, medium pretreated with thymidine phosphorylase
# Procedure: as §1
# P388 lymphoid neoplasm = experiment: as above; assay type: cell-based; settings: mouse line, continuous exposure 72 hours
# Procedure: as §1
# [7] = Brain distribution in mice (brain and plasma concentrations by HPLC); assay type: in vivo; settings: female CD1 mice, 30 or 40 minutes after dose; Compound 1 17mg/kg i.v., Compound 2 10mg/kg i.v., piritrexim 200mg/kg i.p., trimetrexate 100mg/kg i.p.; average of several experiments
# Procedure: Female CD1 mice were dosed with Compound 1 (17mg/kg, i.v.), Compound 2 (10mg/kg, i.v.), piritrexim (200mg/kg,i.p.) or trimetrexate (100mg/kg, i.p.). Brain and plasma samples were collected 30 or 40 minutes later. The drugs were extracted from the samples, and their concentrations were determined using HPLC. The numbers represent the average of several experiments.
IC50 (DHFR),IC50 [1],SMILES,also measured
2 nM,< 1 nM,"CCCC(CC)n1ccc2c3c(N)nc(N)nc3ccc21 (stereo not drawn) [Compound 3, 1,3-Diamino-7-(1-ethylbutyl)-7H-pyrrolo[3,2-f]quinazoline]",
< 1 nM,< 2 nM,"CCCC(CCC)n1ccc2c3c(N)nc(N)nc3ccc21 [Compound 4, 1,3-Diamino-7-(1-propylbutyl)-7H-pyrrolo[3,2-f]quinazoline hydrochloride]",
< 1 nM,< 1 nM,"CCc1cc2c3c(N)nc(N)nc3ccc2n1C(CC)CC [Compound 6, 1,3-Diamino-8-ethyl-7-(1-ethylpropyl)-7H-pyrrolo(3,2-f)quinazoline]",
10 nM,18 nM,"CCC(C)n1ccc2c3c(N)nc(N)nc3ccc21 (stereo not drawn) [Compound 7a, 1,3-diamino-7-sec-butyl-7H-pyrrolo(3,2-f)quinazoline]",
7 nM,11 nM,"CCCC(C)n1ccc2c3c(N)nc(N)nc3ccc21 (stereo not drawn) [Compound 7b, 1,3-diamino-7-(1-methylbutyl)-7H-pyrrolo(3,2-f)quinazoline]",
3 nM,< 2 nM,"CCC(C(C)C)n1ccc2c3c(N)nc(N)nc3ccc21 (stereo not drawn) [Compound 7c, 1,3-diamino-7-(1-ethyl-2-methylpropyl)-7H-pyrrolo(3,2-f)quinazoline]",
35 nM,48 nM,"CC(C)n1ccc2c3c(N)nc(N)nc3ccc21 [Compound 7d, 1,3-diamino-7-isopropyl-7H-pyrrolo(3,2-f)quinazoline]",
3 nM,44 nM,"Nc1nc(N)c2c(ccc3c2ccn3C2CCCCC2)n1 [Compound 7f, 1,3-diamino-7-cyclohexyl-7H-pyrrolo(3,2-f)quinazoline]",
6 nM,33 nM,"Nc1nc(N)c2c(ccc3c2ccn3C2C=CCCC2)n1 (stereo not drawn) [Compound 7g, 1,3-diamino-7-(2-cyclohexen-1-yl)-7H-pyrrolo(3,2-f)quinazoline]",
4 nM,9 nM,"Cc1cc2c3c(N)nc(N)nc3ccc2n1C(C)C [Compound 8a, 1,3-diamino-7-isopropyl-8-methyl-7H-pyrrolo(3,2-f)quinazoline]",
4.1 nM,3.3 nM,"CCC(CC)n1c(COC)cc2c3c(N)nc(N)nc3ccc21 [Compound 9a, 1,3-diamino-7-(1-ethylpropyl)-8-(methoxymethyl)-7H-pyrrolo (3,2-f)quinazoline]",
1.8 nM,1.3 nM,"CCCc1cc2c3c(N)nc(N)nc3ccc2n1C(CC)CC [Compound 9b, 1,3-diamino-7-(1-ethylpropyl)-8-propyl-7H-pyrrolo(3,2-f)quinazoline]",
< 1 nM,< 1 nM,"CC(C)n1c(C(C)(C)C)cc2c3c(N)nc(N)nc3ccc21 [Compound 9c, 1,3-diamino-8-tert-butyl-7-isopropyl-7H-pyrrolo(3,2-f)quinazoline]",
< 1 nM,< 1 nM,"CCC(CC)n1c(C(C)C)cc2c3c(N)nc(N)nc3ccc21 [Compound 9d, 1,3-diamino-7-(1-ethylpropyl)-8-isopropyl-7H-pyrrolo(3,2-f)quinazoline]",
4.3 nM,< 1 nM,"CCC(CC)n1c(CCCCl)cc2c3c(N)nc(N)nc3ccc21 [Compound 9f, 1,3-diamino-8-(3-chloropropyl)-7-(1-ethylpropyl)-7H-pyrrolo(3,2-f)quinazoline]",
< 1 nM,< 1 nM,"CCC(C)(C)n1c(C)cc2c3c(N)nc(N)nc3ccc21 [Compound 10b, 1,3-diamino-7-(1,1-dimethylpropyl)-8-methyl-7H-pyrrolo(3,2-f)quinazoline]",
,,"CN(Cc1cnc2nc(N)nc(N)c2n1)c1ccc(C(=O)N[C@@H](CCC(=O)O)C(=O)O)cc1 [Methotrexate, N-[4[[(2,4-diamino-6-pteridinyl)methyl]methylamino]benzoyl]-L-glutamic acid, reference compound]",EC50 (GC3C1 colon carcinoma): 12 nM; EC50 [2]: 7.3 nM; EC50 [3]: 20 nM; EC50 [4]: 8.5 nM; EC50 [5]: 75 nM; EC50 (S180 sarcoma): 18.7 nM; EC50 [6]: 12 nM; EC50 (D98 bone marrow cells): 47 nM; EC50 (CCRF-CEM T cells): 1.9 nM; EC50 (Daoy medulloblastoma): 21 nM; EC50 (P388 lymphoid neoplasm): 2.7 nM
,,"COc1ccc(OC)c(Cc2cnc3nc(N)nc(N)c3c2C)c1 [Piritrexim, 2,4-diamino-6(2,5-dimethoxybenzyl)5-methylpyrido(2,3-d)pyrimidine, reference compound]",Tissue concentration brain [7]: 2.3 µg/g; Tissue concentration plasma [7]: 4.2 µg/mL; EC50 (GC3C1 colon carcinoma): 7.6 nM; EC50 [2]: 1.3 nM; EC50 [3]: 340 nM; EC50 [4]: 4 nM; EC50 [5]: 5.2 nM; EC50 (S180 sarcoma): 10 nM; EC50 [6]: 175 nM; EC50 (D98 bone marrow cells): 195 nM; EC50 (CCRF-CEM T cells): 15 nM; EC50 (Daoy medulloblastoma): 48 nM; EC50 (P388 lymphoid neoplasm): 23 nM
,,"COc1cc(NCc2ccc3nc(N)nc(N)c3c2C)cc(OC)c1OC [Trimetrexate, 5-methyl-6-[[(3,4,5-trimethoxyphenyl)amino]methyl]-2,4-quinazolinediamine, reference compound]",Tissue concentration brain [7]: 1.4 µg/g; Tissue concentration plasma [7]: 13 µg/mL

SMILES,IC50 (DHFR),IC50 [1],also measured
"COCC(COC)n1ccc2c3c(N)nc(N)nc3ccc21 [Compound 7e, 1,3-diamino-7-(2-methoxy-1-methoxymethyl)ethyl-7H-pyrrolo(3,2-f)quinazoline]",8.9 nM,8.4 nM,
"CCc1cc2c3c(N)nc(N)nc3ccc2n1C(C)CC (stereo not drawn) [Compound 9e, 1,3-diamino-8-ethyl-7-sec-butyl-7H-pyrrolo(3,2-f)quinazoline]",< 1 nM,< 1 nM,
"CCCCc1cc2c3c(N)nc(N)nc3ccc2n1C(C)(C)C [Compound 10a, 1,3-diamino-8-butyl-7-tert-butyl-7H-pyrrolo(3,2-f)quinazoline]",7 nM,,
